Laboratory results from patent US8778871B2 (Takeda Pharmaceutical Company Limited, priority 2004, dated 2014).
Non-standard residues stand in square brackets, D forms with d. Residues, ends and D or L forms follow the SMILES beside them. *: point of attachment. Cyclohexanecarbonyl = O=C(C1CCCCC1)*; Arg(Me) = CNC(=N)NCCC[C@H](N)C(=O)O; 2Pal = N[C@@H](Cc1ccccn1)C(=O)O; 4Pal = N[C@@H](Cc1ccncc1)C(=O)O; d3Pal = N[C@H](Cc1cccnc1)C(=O)O; azaGly = NNC(=O)O

Biological target: T1, hOT7T175 (Homo sapiens, UniProt Q969F8)
T1 construct: expressed in transfected cells
T1 sequence (Q969F8 whole entry L364H): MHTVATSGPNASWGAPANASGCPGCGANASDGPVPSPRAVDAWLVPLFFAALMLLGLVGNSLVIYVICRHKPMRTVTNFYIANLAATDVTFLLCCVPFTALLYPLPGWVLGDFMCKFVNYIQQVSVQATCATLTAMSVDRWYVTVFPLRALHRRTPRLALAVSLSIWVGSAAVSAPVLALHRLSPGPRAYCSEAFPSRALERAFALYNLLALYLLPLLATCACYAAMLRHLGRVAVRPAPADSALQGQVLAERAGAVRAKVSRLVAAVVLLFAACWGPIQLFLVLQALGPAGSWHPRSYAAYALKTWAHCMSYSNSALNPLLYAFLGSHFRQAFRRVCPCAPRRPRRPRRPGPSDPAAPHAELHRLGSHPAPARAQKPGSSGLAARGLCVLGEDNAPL
Test: Intracellular Ca ion level-increasing activity using FLIPR (180 seconds; specific activity to Metastin (1-54))
Format: cell-based
Conditions: hOT7T175/CHO, change in intracellular calcium ion level for 180 seconds, Tables 21-23
Description: In accordance with the method described in JPA 2000-312590, the intracellular Ca ion level-increasing activity was measured using FLIPR. […]
The intracellular Ca ion level-increasing activity of the synthetic peptide in hOT7T175/CHO was determined using FLIPR (Molecular Devices, Inc.).
hOT7T175/CHO was subcultured in DMEM supplemented with 10% dialyzed fetal bovine serum (hereinafter abbreviated as dFBS) and provided for the experiment (hereinafter abbreviated as 10% dFBS/DMEM). The hOT7T175/CHO was suspended in 10% dFBS-DMEM in 15×10^4 cells/ml. The suspension was inoculated on a 96-well plate for FLIPR (Black Plate Clear Bottom, Coster, Inc.) at 200 μl each (3.0×10^4 cells/200 μl), followed by incubation at 37° C. overnight in a 5% CO2 incubator. The cells thus incubated were used (hereinafter simply referred to as the cell plate). Then, 21 ml of HANKS/HBSS (9.8 g of HANKS', 0.35 g of sodium hydrogencarbonate, 20 ml of 1M HEPES; after adjusting the pH to 7.4 with 1N sodium hydroxide, the mixture was subjected to sterilization through a filter), 210 μl of […] Probenecid and 210 μl of fetal bovine serum (FBS) were mixed (HANKS/HBSS-Probenecid-FBS).
Furthermore, 2 vials of Fluo3-AM (50 μg/vial) were dissolved in 21 μL of dimethylsulfoxide and 21 μL of 20% Pluronic acid. The resulting solution was added to and mixed with 10 ml of HANKS/HBSS-Probenecid-FBS described above. After the culture medium was removed, the mixture was dispensed onto the cell plate in 100 μl each/well, followed by incubation at 37° C. for an hour in a 5% CO2 incubator (pigment loading). The peptide was dissolved in dimethylsulfoxide in 1×10^−3 M. The peptide solution was diluted with HANKS'/HBSS containing 2.5 mM Probenecid and 0.2% BSA. The dilution was transferred to a 96-well plate for FLIPR (V-Bottom plate, Coster, Inc.) (hereinafter referred to as a sample plate). After completion of the pigment loading onto the cell plate, the cell plate washed 4 times with wash buffer, which was obtained by adding 2.5 mM Probenecid to HANKS'/HBSS, using a plate washer to leave 100 μL of wash buffer after the washing. The cell plate and the sample plate were set in FLIPR and 0.05 ml of a sample from the sample plate was automatically transferred to the cell plate with the FLIPR device to promote the cell response. A change in intracellular calcium ion level for 180 seconds was measured with passage of time.

CNC(=N)NCCC[C@H](NC(=O)[C@H](CC(C)C)NC(=O)NNC(=O)[C@H](Cc1ccccc1)NC(=O)[C@H](CO)NC(=O)[C@H](CC(N)=O)NC(=O)C1CCCCC1)C(=O)N[C@@H](Cc1ccccc1)C(N)=O [Compound No. 278, Cyclohexanecarbonyl-Asn-Ser-Phe-AzaGly-Leu-Arg(Me)-Phe-NH2] (Cyclohexanecarbonyl-NSF[azaGly]L[Arg(Me)]F-NH2)
intracellular Ca ion level-increasing activity [specific activity to Metastin (1-54)]: 2

CNC(=N)NCCC[C@H](NC(=O)[C@H](CC(C)C)NC(=O)CNC(=O)[C@H](Cc1ccccn1)NC(=O)[C@H](CO)NC(=O)[C@H](CC(N)=O)NC(=O)[C@H](Cc1c[nH]c2ccccc12)NC(=O)[C@H](CC(N)=O)NC(=O)[C@H](N)Cc1ccc(O)cc1)C(=O)N[C@@H](Cc1ccccc1)C(N)=O [Compound No. 281, D-Tyr-Asn-Trp-Asn-Ser-Pya(2)-Gly-Leu-Arg(Me)-Phe-NH2] (H-[dY]NWNS[2Pal]GL[Arg(Me)]F-NH2)
intracellular Ca ion level-increasing activity [specific activity to Metastin (1-54)]: ½

CNC(=N)NCCC[C@H](NC(=O)[C@H](CC(C)C)NC(=O)NNC(=O)[C@H](Cc1ccccc1)NC(=O)[C@H](CO)NC(=O)[C@H](CC(N)=O)NC(=O)[C@@H](NC(=O)[C@@H](CC(N)=O)NC(=O)[C@H](N)Cc1ccc(O)cc1)[C@@H](C)O)C(=O)N[C@@H](Cc1ccccc1)C(N)=O [Compound No. 284, D-Tyr-D-Asn-Thr-Asn-Ser-Phe-AzaGly-Leu-Arg(Me)-Phe-NH2] (H-[dY][dN]TNSF[azaGly]L[Arg(Me)]F-NH2)
intracellular Ca ion level-increasing activity [specific activity to Metastin (1-54)]: 1

CNC(=N)NCCC[C@H](NC(=O)[C@H](CC(C)C)NC(=O)NNC(=O)[C@H](Cc1ccccc1)NC(=O)[C@H](CO)NC(=O)[C@H](CC(N)=O)NC(=O)[C@H](Cc1ccncc1)NC(=O)[C@H](CC(N)=O)NC(=O)[C@H](N)Cc1ccc(O)cc1)C(=O)N[C@@H](Cc1ccccc1)C(N)=O [Compound No. 286, D-Tyr-Asn-Pya(4)-Asn-Ser-Phe-AzaGly-Leu-Arg(Me)-Phe-NH2] (H-[dY]N[4Pal]NSF[azaGly]L[Arg(Me)]F-NH2)
intracellular Ca ion level-increasing activity [specific activity to Metastin (1-54)]: 2

CNC(=N)NCCC[C@H](NC(=O)[C@H](CC(C)C)NC(=O)NNC(=O)[C@H](Cc1ccccc1)NC(=O)[C@H](CO)NC(=O)[C@H](CC(N)=O)NC(=O)[C@H](Cc1c[nH]c2ccccc12)NC(=O)[C@@H](CO)NC(=O)[C@H](N)Cc1ccc(O)cc1)C(=O)N[C@@H](Cc1ccccc1)C(N)=O [Compound No. 287, D-Tyr-D-Ser-Trp-Asn-Ser-Phe-AzaGly-Leu-Arg(Me)-Phe-NH2] (H-[dY][dS]WNSF[azaGly]L[Arg(Me)]F-NH2)
intracellular Ca ion level-increasing activity [specific activity to Metastin (1-54)]: 2

CNC(=N)NCCC[C@H](NC(=O)[C@H](CC(C)C)NC(=O)NNC(=O)[C@H](Cc1ccccc1)NC(=O)[C@H](CO)NC(=O)[C@H](CC(N)=O)NC(=O)[C@H](Cc1c[nH]c2ccccc12)NC(=O)[C@@H](Cc1c[nH]cn1)NC(=O)[C@H](N)Cc1ccc(O)cc1)C(=O)N[C@@H](Cc1ccccc1)C(N)=O [Compound No. 288, D-Tyr-D-His-Trp-Asn-Ser-Phe-AzaGly-Leu-Arg(Me)-Phe-NH2] (H-[dY][dH]WNSF[azaGly]L[Arg(Me)]F-NH2)
intracellular Ca ion level-increasing activity [specific activity to Metastin (1-54)]: 1

CNC(=N)NCCC[C@H](NC(=O)[C@H](CC(C)C)NC(=O)NNC(=O)[C@H](Cc1ccccc1)NC(=O)[C@H](CO)NC(=O)[C@H](CC(N)=O)NC(=O)[C@H](Cc1c[nH]c2ccccc12)NC(=O)[C@H](N)Cc1cccnc1)C(=O)N[C@@H](Cc1ccccc1)C(N)=O [Compound No. 289, D-Pya(3)-Trp-Asn-Ser-Phe-AzaGly-Leu-Arg(Me)-Phe-NH2] (H-[d3Pal]WNSF[azaGly]L[Arg(Me)]F-NH2)
intracellular Ca ion level-increasing activity [specific activity to Metastin (1-54)]: 1
